US20250066320A1, “Active Ingredients with Sialagogue and Tingling/Fizzy Effect, and Preparations Containing Same” (Symrise AG, priority 2021, published 2025)

Assay: Sensory tasting of the active ingredients (mouth-watering and/or tingling effect) by a trained expert panel
Type: in vivo, human
Conditions: for Sensory Rating (profile in words): 3 to 7 tasters; for Sensory Rating: intensity of mouth-watering and/or tingling/fizzing effect (figure in brackets): 50 ppm, scale of 1 (very weak) to 10 (very strong)
Protocol: The sensory tasting of the active ingredients according to the invention was carried out as follows: • (1) The active ingredients were each prepared in a 5% sugar solution or in an unflavored standard fondant mass. Fondant is the name for a soft, pasty sugar mass that is used to make various confectionery products. Fondant is made from water and sucrose as well as glucose syrup, invert sugar cream and/or sugar alcohols (e.g., sorbitol or mannitol). The mixture is boiled and then processed into a soft paste by kneading it vigorously and cooling it quickly. • (2) The concentration of the active ingredients was 25 or 50 ppm. • (3) The test samples were tested under practical conditions by a panel of experts with sensory training. For tasting, 3 to 7 tasters each rinsed their mouths with approx. 5 ml of the sugar solution and spat the solution out again. The mouth-watering and/or tingling effect was assessed on a scale of 1 (very weak) to 10 (very strong) and the profile evaluated.

[1] = 25 ppm in 5% sugar solution or unflavored fondant mass
[2] = 50 ppm in 5% sugar solution or unflavored fondant mass

Row | Compound | Sensory Rating (profile in words) [1] | Sensory Rating (profile in words) [2] | Sensory Rating: intensity of mouth-watering and/or tingling/fizzing effect (figure in brackets)
1 | CCOc1ccc(C(=O)N2CCN(CCc3ccccc3)CC2)cc1 [Compound 43, (4-ethoxyphenyl)-[4-(2-phenylethyl)piperazin-1-yl]methanone] | metallic, slightly numbing, tingling/fizzing and mouth- watering effect | strongly bitter, metallic, tingling/fizzing (7) , and mouth-watering effect | 7
2 | CCOc1ccc(C(=O)N2CCN(CCC3CCCCC3)CC2)cc1 [Compound 44, [4-(2-cyclo-hexylethyl)piperazin-1-yl]-(4-ethoxy-phenyl)methanone] |  | slightly tingling/fizzing (4), and mouth-watering | slightly tingling/fizzing (4), and mouth-watering
3 | CCOc1ccc(C(=O)N2CCC(CCCc3ccccc3)CC2)cc1 [Compound 45, (4-ethoxyphenyl)-[4-(3-phenyl-propyl)-1-piperidyl]-methanone] |  | slightly tin- gling/ fizzing (2) | slightly tin- gling/ fizzing (2)
4 | CCOc1ccc(C(=O)N2CCN(CCCc3ccccc3)CC2)cc1 [Compound 46, (4-ethoxyphenyl)-[4-(3-phenyl-propyl)piperazin-1-yl]methanone] | metallic, slightly numbing, tingling and mouth- watering effect | strong, bitter, metallic and tingling/fizzing (7), and mouth-watering effect | 7
5 | CCOc1ccc(C(=O)N2CCCN(CCc3ccccc3)CC2)cc1 [Compound 47, (4-ethoxyphenyl)-[4-(2-phenylethyl)-1,4-diazepan-1-yl]methanone] |  | Strong mouth-watering and tingling/fizzing effect (6), Pleasant taste | Strong mouth-watering and tingling/fizzing effect (6), Pleasant taste
6 | CCOc1ccc(C(=O)N2CCN(Cc3ccccc3)CC2)cc1 [Compound 48, (4-benzylpiperazin-1-yl)-(4-ethoxy-phenyl)methanone] |  | slightly tingling/ fizzing (1-2) | slightly tingling/ fizzing (1-2)
